Experimental data reported in patent US8329686B2, “Isatin analogues and uses therefor” (Washington University, priority 2006, dated 2012).
Read-outs that look alike come from different tables or passages of the source. One block for each molecule: values may come before it. Residues, ends and D or L forms follow the SMILES beside them.

Experiments:
Format in all cases: biochemical
caspase-3 = target: T1, caspase-3 (Homo sapiens, UniProt P42574); experiment: Enzyme inhibition assay, caspase 3 (fluorogenic Ac-DEVD-AMC)
T1 construct: purchased Sigma-Aldrich (St. Louis, Mo.)
T1 sequence (P42574 29-175 limits assumed): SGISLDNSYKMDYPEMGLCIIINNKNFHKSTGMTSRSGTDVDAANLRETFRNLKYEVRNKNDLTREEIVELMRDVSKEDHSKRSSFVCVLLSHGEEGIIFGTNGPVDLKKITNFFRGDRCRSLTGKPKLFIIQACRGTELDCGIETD
T1 sequence (P42574 176-277 limits assumed): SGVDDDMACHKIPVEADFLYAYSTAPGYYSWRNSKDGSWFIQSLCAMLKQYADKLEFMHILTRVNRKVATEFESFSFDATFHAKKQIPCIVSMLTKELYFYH

caspase 6 = target: T2, caspase 6 (Homo sapiens, UniProt P55212); experiment: Enzyme inhibition assay, caspase 6 (fluorogenic Ac-VEID-AMC)
T2 construct: purchased Sigma-Aldrich (St. Louis, Mo.)
T2 sequence (P55212 24-179 limits assumed): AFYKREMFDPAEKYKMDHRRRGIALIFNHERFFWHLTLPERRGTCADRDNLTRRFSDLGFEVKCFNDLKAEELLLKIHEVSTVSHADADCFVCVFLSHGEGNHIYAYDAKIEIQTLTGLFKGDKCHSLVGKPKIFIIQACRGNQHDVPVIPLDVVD
T2 sequence (P55212 194-293 limits assumed): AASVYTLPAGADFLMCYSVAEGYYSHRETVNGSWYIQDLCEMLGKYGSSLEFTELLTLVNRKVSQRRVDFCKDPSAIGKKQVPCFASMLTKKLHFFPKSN

caspase 1 = target: T3, caspase 1 (Homo sapiens, UniProt P29466); experiment: Enzyme inhibition assay, caspase 1 (fluorogenic Ac-YVAD-AMC)
T3 construct: purchased BIOMOL Research Laboratories (Plymouth Meeting, Pa.)
T3 sequence (P29466 120-297 limits assumed): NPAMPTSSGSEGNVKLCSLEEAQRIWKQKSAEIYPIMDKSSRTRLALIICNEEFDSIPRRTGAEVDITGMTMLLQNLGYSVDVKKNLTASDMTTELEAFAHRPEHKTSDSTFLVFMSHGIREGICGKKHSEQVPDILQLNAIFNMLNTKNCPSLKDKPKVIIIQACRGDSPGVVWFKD
T3 sequence (P29466 317-404 limits assumed): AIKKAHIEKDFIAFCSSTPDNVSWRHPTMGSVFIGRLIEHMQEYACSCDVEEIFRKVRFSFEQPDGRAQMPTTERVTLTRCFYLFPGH

caspase 8 = target: T4, caspase 8 (Homo sapiens, UniProt Q14790); experiment: Enzyme inhibition assay, caspase 8 (fluorogenic Ac-IETD-AMC)
T4 construct: purchased Sigma-Aldrich (St. Louis, Mo.)
T4 sequence (Q14790 217-374 limits assumed): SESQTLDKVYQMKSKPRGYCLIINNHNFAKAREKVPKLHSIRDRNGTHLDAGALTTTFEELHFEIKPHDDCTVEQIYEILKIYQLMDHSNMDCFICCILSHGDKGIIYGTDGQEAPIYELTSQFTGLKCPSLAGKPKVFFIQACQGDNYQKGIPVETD
T4 sequence (Q14790 385-479 limits assumed): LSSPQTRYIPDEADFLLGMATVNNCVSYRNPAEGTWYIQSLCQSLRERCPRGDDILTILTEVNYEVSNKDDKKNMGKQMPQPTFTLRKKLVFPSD

caspase 7 = target: T5, caspase 7 (Homo sapiens, UniProt P55210); experiment: Enzyme inhibition assay, caspase 7 (fluorogenic Ac-DEVD-AMC)
T5 construct: purchased Sigma-Aldrich (St. Louis, Mo.)
T5 sequence (P55210 24-198 limits assumed): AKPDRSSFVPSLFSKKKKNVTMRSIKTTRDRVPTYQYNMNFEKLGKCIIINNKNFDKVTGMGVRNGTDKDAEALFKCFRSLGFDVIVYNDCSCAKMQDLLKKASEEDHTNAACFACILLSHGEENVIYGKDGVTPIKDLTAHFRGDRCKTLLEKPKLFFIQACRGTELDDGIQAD
T5 sequence (P55210 207-303 limits assumed): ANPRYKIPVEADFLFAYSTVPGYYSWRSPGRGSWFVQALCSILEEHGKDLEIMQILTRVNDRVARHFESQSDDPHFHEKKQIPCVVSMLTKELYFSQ

[1] = Table 1, read-out: IC50 (nM) Caspase 3
[2] = Table 1, read-out: IC50 (nM) Caspase 6
[3] = Table 1, read-out: IC50 (nM) Caspase 1
[4] = Table 1, read-out: IC50 (nM) Caspase 8
[5] = Table 2, read-out: IC50 (nM) Caspase 3
[6] = Table 2, read-out: IC50 (nM) Caspase 7
[7] = Table 2, read-out: IC50 (nM) Caspase 8
[8] = Table 6, read-out: IC50 (nM) caspase-3
[9] = Table 6, read-out: IC50 (nM) caspase-6
[10] = Table 6, read-out: IC50 (nM) caspase-1
[11] = Table 6, read-out: IC50 (nM) caspase-7
[12] = Table 6, read-out: IC50 (nM) caspase-8
[13] = Table 7, read-out: IC50 (nM) Casp-1
[14] = Table 7, read-out: IC50 (nM) Casp-8
[15] = Table 1, read-out: IC50 (nM) Caspase 7

IC50 (caspase-3; [1]): 9.7 ± 1.3 nM
IC50 (caspase 6; [2]): 3720 nM
IC50 (caspase 1; [3]): > 15000 nM
IC50 (caspase 8; [4]): > 50000 nM
Structure (SMILES): O=C1C(=O)N(Cc2ccc(OCCF)cc2)c2ccc(S(=O)(=O)N3CCCC3COc3ccccc3)cc21 (centres unmarked) [WC-II-89, 1-[4-(2-Fluoroethoxy)-benzyl]-5-(2-phenoxymethyl-pyrrolidine-1-sulfonyl)-1H-indole-2,3-dione]

IC50 (caspase-3; [5]): > 20000 nM
potency as caspase-3/7 inhibitors (in words) (caspase-3): low potency
IC50 (caspase 6; Table 2, read-out: IC50 (nM) Caspase 6): > 20000 nM
IC50 (caspase 1; Table 2, read-out: IC50 (nM) Caspase 1): > 50000 nM
IC50 (caspase 7; [6]): > 50000 nM
IC50 (caspase 8; [7]): > 50000 nM
Structure (SMILES): O=C1Nc2ccc(S(=O)(=O)N3CC[C@H]3COc3ccccc3)cc2C1=NO [WC-II-52]

IC50 (caspase-3; [8]): 20.4 ± 1.7 nM
IC50 (caspase 6; [9]): > 5000 nM
IC50 (caspase 1; [10]): > 5000 nM
IC50 (caspase 7; [11]): 142 ± 22.6 nM
IC50 (caspase 8; [12]): > 50000 nM
Structure (SMILES): O=C1Nc2ccc(S(=O)(=O)N3CCCC3COc3ccncc3)cc2C1=O (centres unmarked) [Compound 23, 5-(2-(Pyridin-4-yl-oxymethyl)-pyrrolidine-1-sulfonyl)-1H-indole-2,3-dione]

Structure (SMILES): O=C1C(=O)N(Cc2ccc(Br)cc2)c2ccc(S(=O)(=O)N3CCCC3COc3cccnc3)cc21 (centres unmarked) [Compound 28c, 1-(4-Bromo-benzyl)-5-[2-(pyridin-3-yl-oxymethyl)-pyrrolidine-1-sulfonyl]-1H-indole-2,3-dione]
IC50 (caspase-3; IC50 (nM) Casp-3, Table 7): 3.6 ± 0.5 nM
IC50 (caspase-3; IC50 (nM) Caspase 3, Table 1): 3.6 ± 0.5 nM
IC50 (caspase 1; [3]): > 15000 nM
IC50 (caspase 1; [13]): > 15000 nM
IC50 (caspase 7; IC50 (nM) Casp-7, Table 7): 6.6 ± 0.1 nM
IC50 (caspase 7; IC50 (nM) Caspase 7, Table 1): 6.6 ± 0.1 nM
IC50 (caspase 8; [4]): > 50000 nM
IC50 (caspase 8; [14]): > 50000 nM

IC50 (caspase-3; [1]): 3.6 ± 0.5 nM
IC50 (caspase 6; [2]): 8700 nM
IC50 (caspase 1; [3]): > 10000 nM
IC50 (caspase 7; [15]): 17.6 ± 0.4 nM
IC50 (caspase 8; [4]): > 50000 nM
Structure (SMILES): O=C1C(=O)N(Cc2ccc(OCCF)cc2)c2ccc(S(=O)(=O)N3CC[C@H]3COc3cccnc3)cc21 [WC-II-101]

IC50 (caspase 7; [15]): 8.5 ± 1 nM
IC50 (caspase 7; [6]): 8 ± 1 nM
Structure (SMILES): CC(=O)N[C@@H](CC(=O)O)C(=O)N[C@@H](CCC(=O)O)C(=O)N[C@H](C(=O)N[C@H](C=O)CC(=O)O)C(C)C [Ac-DEVD-CHO, reference compound]

IC50 (caspase-3; Table 4, read-out: IC50 (nM) caspase-3): 13.5 ± 2.4 nM
IC50 (caspase 7; Table 4, read-out: IC50 (nM) caspase-7): 44 ± 0.1 nM
Structure (SMILES): O=C1C(=O)N(Cc2ccc(O)cc2)c2ccc(S(=O)(=O)N3CCC[C@H]3COc3ccccc3)cc21 [Compound 11f, (S)-1-(4-Hydroxybenzyl)-5-(2-phenoxymethyl-pyrrolidine-1-sulfonyl)-1H-indole-2,3-dione]

Structure (SMILES): O=C1C(=O)N(Cc2ccc(O)cc2)c2ccc(S(=O)(=O)N3CCCC3COc3cccnc3)cc21 (centres unmarked) [Compound 28b, 1-(4-Hydroxy-benzyl)-5-[2-(pyridin-3-yl-oxymethyl)-pyrrolidine-1-sulfonyl]-1H-indole-2,3-dione]
IC50 (caspase-3; IC50 (nM) Casp-3, Table 7): 3.9 ± 0.6 nM
IC50 (caspase 6): 9550 ± 354 nM
IC50 (caspase 1; [13]): > 15000 nM
IC50 (caspase 7; IC50 (nM) Casp-7, Table 7): 11.7 ± 1 nM
IC50 (caspase 8; [14]): > 50000 nM

IC50 (caspase-3; [8]): 8.4 ± 2 nM
IC50 (caspase 6; [9]): > 5000 nM
IC50 (caspase 1; [10]): > 10000 nM
IC50 (caspase 7; [11]): 15.1 ± 0.1 nM
IC50 (caspase 8; [12]): > 50000 nM
Structure (SMILES): O=C1C(=O)N(Cc2ccc(F)cc2)c2ccc(S(=O)(=O)N3CCCC3COc3cccnc3)cc21 (centres unmarked) [Compound 21e, 1-(4-Fluorobenzyl)-5-(2-(pyridin-3-yl-oxymethyl)-pyrrolidine-1-sulfonyl)-1H-indole-2,3-dione]

IC50 (caspase 8; [4]): 4.7 ± 0.9 nM
IC50 (caspase 8; [7]): 4 ± 0.1 nM
Structure (SMILES): CC[C@H](C)[C@H](NC(C)=O)C(=O)N[C@@H](CCC(=O)O)C(=O)N[C@H](C(=O)N[C@H](C=O)CC(=O)O)[C@@H](C)O [Ac-IETD-CHO, reference compound] (Ac-IETD-aldehyde)

potency as caspase-3/7 inhibitors (in words) (caspase-3): low potency
Structure (SMILES): O=C1Nc2ccc(S(=O)(=O)N3CCC[C@H]3COc3ccccc3)cc2C1=NO [WC(II)-51]

IC50 (caspase-3; [5]): > 1000 nM
potency as caspase-3/7 inhibitors (in words) (caspase-3): low potency
Structure (SMILES): COc1ccc(CN2C(=O)C(=CC#N)c3cc(S(=O)(=O)N4CCC[C@H]4COc4ccccc4)ccc32)cc1 [WC-II-99]
